# Experimental data published in US8445636B2, “Antimicrobial and anticancer lipopeptides” (Yeda Research & Development Co. Ltd., priority 2003, dated 2013).
# Non-standard residues stand in square brackets, D forms with d. Residues, ends and D or L forms follow the SMILES beside them. *: point of attachment. Palmitoyl = CCCCCCCCCCCCCCCC(=O)*
# What was measured:
# Assay type in all cases: cell-based
# [1] = test system: E. coli D21; details: D21, pH 7.4
# [2] = test system: Acinetobacter baumannii ATCC 19606; details: ATCC 19606, pH 7.4
# Method: (§1) The antibacterial activity of the lipopeptides was examined in sterile 96-well plates (Nunc F96 microtiter plates) in a final volume of 100 μl as follows: Aliquots (50 μl) of a suspension containing bacteria at concentration of 1×10^6 Colony-Forming Units (CFU)/ml in culture LB (Lauria broth) medium (pH 7.4 or pH 5.5) were added to 50 μl of water containing the lipopeptide in serial 2-fold dilutions in water. Adjustment of the pH was done by diluted solutions of HCl and NaOH Inhibition of growth was determined by measuring the absorbance at 600 nm with a Microplate autoreader E1309 (Bio-Tek Instruments), after an incubation time of 18-20 h at 37° C. Antibacterial activities were expressed as the minimal inhibitory concentration (MIC), the concentration at which 100% inhibition of growth was observed after 18-20 h of incubation. The bacteria used were: Escherichia coli ATCC 25922, Acinetobacter baumannii ATCC 19606, Pseudomonas aeruginosa ATCC 27853, Staphylococcus aureus ATCC 6538P, Enterococcus faecalis ATCC 29212, Enterobacter cloacae ATCC 49141. The antibacterial activity of lipopeptides was also examined against resistant bacteria: methicilin-resistant Staphylococcus aureus (MRSA) ATCC 700698 and vancomycin-resistant Enterococcus faecium (VRE) ATCC 700221. If not indicated otherwise, the bacterial growth was detected at pH 7.4.
# [3] = test system: Staphylococcus aureus ATCC 6538P; details: ATCC 6538, pH 7.4
# Method: as §1
# [4] = test system: Candida albicans ATCC 10231; assay: microbe, parasite or virus in culture; details: ATCC 10231, pH 7.4; read-out: Minimal Inhibitory Concentration, Candida Albicans (ATCC 10231)
# Method: The antifungal activity of the lipopeptides was examined in sterile 96-well plates (Nunc F96 microtiter plates) in a final volume of 200 μL as follows: 100 µl of a suspension containing fungi at a concentration of 1×10^4 Colony-Forming Units (CFU)/ml in culture medium (RPMI 1640, 0.165 M MOPS with L-glutamine, without NaHCO3) at pH 7.4 or pH 5.5 (adjustment of the pH was done by diluted solutions of HCl and NaOH) were added to 100 μl of water containing the peptide in serial 2-fold dilutions in water. The fungi were incubated in the presence of the lipopeptides for 24-48 h at 35° C. in a Binder KB115 incubator under agitation. Growth inhibition was determined by measuring the absorbance at 620 nm with a Microplate autoreader E1309 (Bio-Tek Instruments). Antifungal activity is expressed as the minimal inhibitory concentration (MIC), the concentration at which 100% inhibition of fungi growth was observed after the incubation time mentioned above. The fungi used were: Aspergillus niger ATCC 9642, Candida albicans ATCC 10231 and Cryptococcus neoformans ATCC 66031. If not indicated otherwise, the fungi growth was detected at pH 7.4.
# [5] = test system: Cryptococcus neoformans ATCC MYA-422; assay: microbe, parasite or virus in culture; details: ATCC MYA-422, pH 7.4; read-out: Minimal Inhibitory Concentration, Cyrptococcus neoformans (ATCC MYA-422)
# [6] = test system: Aspergillus fumigatus ATCC 26430; assay: microbe, parasite or virus in culture; details: ATCC 26430, pH 7.4; read-out: Minimal Inhibitory Concentration, Aspergillus Fomigatus (ATCC 26430)
# [7] = test system: Pseudomonas aeruginosa ATCC 27853; details: ATCC 27853, pH 7.4
# Method: as §1
Compound,"Minimal Inhibitory Concentration, E. coli-D21 [1] [µM]","Minimal Inhibitory Concentration, A. baumannii ATCC 19606 [2] [µM]","Minimal Inhibitory Concentration, S. aureus ATCC 6538P [3] [µM]",MIC [4] [µM],MIC [5] [µM],MIC [6] [µM],"Minimal Inhibitory Concentration, P. aeruginosa ATCC 27853 [7] [µM]"
CCCCCCCCCCCCCC(=O)N[C@@H](CCCCN)C(=O)N[C@@H](CCCCN)C(=O)N[C@@H](CCCCN)C(N)=O [MYR-KKK],25,>100,12.5,>100,12.5,100,–
"CCCCCCCCCCCCCCCC(=O)N[C@@H](CCC(=O)O)C(=O)N[C@H](CCCCN)C(=O)N[C@@H](CCCCN)C(N)=O [PA-EKK, Palmitoyl-Glu-D-Lys-Lys-NH2] (Palmitoyl-Glu-[dK]-Lys-NH2)",100,>100,25,25,12.5,25,>100
"CCCCCCCCCCCCCCCC(=O)N[C@@H](CCC(=O)O)C(=O)N[C@@H](CCCCN)C(=O)N[C@H](CCCCN)C(=O)N[C@@H](CCCCN)C(N)=O [PA-EKKK, Palmitoyl-Glu-Lys-D-Lys-Lys-NH2] (Palmitoyl-EK[dK]K-NH2)",25,>100,12.5,25,6.25,12.5,>100
"CCCCCCCCCCCCCCCC(=O)N[C@@H](CCCCN)C(=O)N[C@@H](C)C(=O)N[C@H](C)C(=O)N[C@@H](CCCCN)C(N)=O [PA-KAAK, Palmitoyl-Lys-Ala-D-Ala-Lys-NH2] (Palmitoyl-KA[dA]K-NH2)",6.25,100,6.25,25,3.12,12.5,100
